Measured values: patent US20260014129A1, “MITOCHONDRIAL PYRUVATE METABOLISM INHIBITORS FOR TREATING CHRONIC MYELOID LEUKEMIA” (The University Court of the University of Glasgow, priority 2022, published 2026)

Key:
CML CD34+ cells [1] = assay: LC-MS steady state metabolite analysis of primary CML CD34+ cells; type: cell-based, human; details: nilotinib treatment, data not shown
Description: (§1) Cells were counted using a CASY counter with the following parameters: E-cur 7.5-22.5, N-cur 5.25-20.5. Cell number was multiplied by peak volume (size) and this number was used to calculate volume of solvent to extract in. Cells were pelleted by centrifugation (400 RCF, 10 minutes, room temperature) at which medium was removed for YSI analysis. Cells were then washed twice with ice cold PBS (Calcium and Magnesium free: Thermo Fisher Scientific) with pulse centrifugation (12,000RCF, 15 seconds, 4° C.) used between and after washes. Cells were then extracted in LC-grade ACN:MeOH:H2O solvent (−20° C., 5:3:2) by disrupting the pellet by pipetting followed by a 5 second vortex. Finally, debris was pelleted by centrifugation (16,000RCF, 10 minutes, 4° C.), supernatant transferred to LC-MS glass vials that were stored at −80° C. until analysis.
The LC system composed of a ZIC-pHILIC column (SeQuant, 150×2.1 mm, 5 μm, Merck KGaA) with a ZIC-pHILIC guard column (SeQuant, 20×2.1 mm) with an UltiMate 3000 HPLC system (Thermo Fisher Scientific). The aqueous mobile-phase solvent was 20 mM ammonium carbonate-0.1% ammonium hydroxide solution and with acetonitrile being used for organic mobile phase. A linear biphasic LC gradient was conducted from 80% organic to 80% aqueous for 15 min for a total run time of 22 min. The column temperature was maintained at 45° C. flow rate set to 200 μL/min.
The MS used in this study was a qExactive Plus Orbitrap Mass Spectrometer (Thermo Fisher Scientific) operating in polarity switching mode. The MS set up was calibrated using a custom CALMIX in both ionization modes before analysis and a tune file targeted towards the lower m/z range was used. Full scan (MS1) data was acquired in both ionization modes in profile mode at 70,000 resolution (at m/z range 75-1000), an automatic gain control (AGC) target of 1×10^6 (max fill time of 250 ms), with spray voltages +4.5 kV (capillary +50V, tube: […], skimmer: +20V) and −3.5 kV (capillary −50V, tube: […], skimmer: −20V) and s-lens RF level of 50 for the front optics. The capillary temperature 375° C., probe temperature 50′C, sheath gas flow rate 25, auxiliary gas flow rate 15a.u. 15 and sweep gas flow rate of 1a.u.
(§2) The peak areas of different metabolites were determined using Tracefinder 4.1 software (Thermo Fisher Scientific). Metabolites were identified by accurate mass of the singly charged ion and by known retention times on the pHILIC column. A commercially available standard compound mix (Merck: MSMLS-1EA) had been analysed previously on our LC-MS system to determine accurate ion masses and retention times. The 13C labelling was determined by quantifying peak areas for the accurate mass of all isotopologues of each metabolite.
Two independent experiments were performed, data normalised to first sample in each experiment, processed through Autoplotter (56), samples as experiments, and normalised data as replicates. […] For MSDC-0160 treated samples a batch correction (to non-drug control) was used prior to analysis using Metabonalyst. Volcano plots were generated, and an FDR adjusted t-test threshold 0.1 was utilised. Note both fold changes and p-values are log transformed. Top-25 scoring metabolites are included in heatmap.

CML CD34+ cells [2] = assay: 13C stable isotope tracing (glucose, glutamine, palmitate) in primary CML CD34+ cells; type: cell-based, human; details: nilotinib treatment, data not shown
Description: (§3) For conjugation of palmitate, a 20 mM stock was made in 100% EtOH. This was incubated on a shaking heater, 60° C. until the solution clarified. The palmitate was then added to 10% BSA (ultra-fatty acid free in EBSS, Roche, 03117057001) to give a palmitate:BSA ratio of 1:3 BSA. This solution was left for 15 min in water bath (37° C.), and then added to final concentration in complete medium. For cell line experiments, the medium was RPMI with 10% dialysed FBS and 1% penicillin/streptomycin. For tracing experiments 11 mM ^13C6 glucose was added to glucose-free RPMI.
as §1, §2
Biological and technical replicates were processed through Autoplotter (56) and natural abundance was corrected for. Fraction of enrichment was calculated as m+2 and above. For CML samples treated with or without imatinib, multiple paired T-tests were conducted on Log 10 transformed values in Graphpad Prism. The correction for multiple comparisons was the two-stage step-up method of Benjamini, Krieger and Yekutieli with an FDR (Q) value of 10%. For volcano plots Log 10 FC vs Log 10 (q value) are plotted with q values>5% in red and >10% in blue. For normal vs CML comparisons, the process was the same with the exception that unpaired t-tests were used. For PC activity in normal vs CML, this is denoted by fraction m+3. For imatinib vs untreated we look at relative activity to PDH. IE., the m+3/m+2 ratio and conducted multiple t-tests with correction for multiple comparisons being the two-stage step-up method of Benjamini, Krieger and Yekutieli with an FDR (Q) value of 10%.

phospho-AMPK = details: previously shown (ref 42); cited from earlier work
K562 CML cell line = assay: 13C6 glucose tracing in K562 CML cell line; type: cell-based, human; details: K562, several concentrations
Description: as §3
Biological and technical replicates were processed through Autoplotter (56) and natural abundance was corrected for. Fraction of enrichment was calculated as m+2 and above. For CML samples treated with or without imatinib, multiple paired T-tests were conducted on Log 10 transformed values in Graphpad Prism. The correction for multiple comparisons was the two-stage step-up method of Benjamini, Krieger and Yekutieli with an FDR (Q) value of 10%. For volcano plots Log 10 FC vs Log 10 (q value) are plotted with q values>5% in red and >10% in blue. For normal vs CML comparisons, the process was the same with the exception that unpaired t-tests were used. For PC activity in normal vs CML, this is denoted by fraction m+3. For imatinib vs untreated we look at relative activity to PDH. IE., the m+3/m+2 ratio and conducted multiple t-tests with correction for multiple comparisons being the two-stage step-up method of Benjamini, Krieger and Yekutieli with an FDR (Q) value of 10%. To examine contribution to carbon pool we corrected contribution of each isotopologue by the number of carbons it contributes to a given metabolite, i.e., for glutamine contribution from m+5 is greater than m+3. Note that for cell line experiments standard deviation is shown.

CML CD34+ cells [3] = assay: Patient-derived xenograft of CML CD34+ cells in NRG-W41 mice, bone marrow flow cytometry; type: in vivo, human; details: 4 weeks
Description: Treatment was given for 4 weeks. For treatment with asciminib (ABL001) plus MSDC-0160, twelve weeks following transplant, drug treatment was started with both asciminib (Fisher Scientific Cat #1642956) dosed at 10 mg/kg/day (5 mg/kg BID); oral gavage and MSDC-0160 (Apex Biotechnology: Cat #B3702) dosed at 30 mg/kg; oral gavage once daily. Treatment was given for 4 weeks. At the respective endpoints, bone marrow cells were collected. This was done by placing inverted cut leg bones into 0.5 mL Eppendorf tubes with holes at bottom. These in turn were placed within 1.5 mL Eppendorf tubes containing PBS, centrifuged (12,000 RCF, 20 seconds). Cells were stained (300 μl/test) with anti-mouse (APC-Cy7 BD Biosciences: Cat #557659, RRID: AB_396774, 1 μl), anti-human CD45 (FITC; BD Biosciences: Cat #555482, RRID: AB_395874, 10 μl), anti-human CD34 (APC; BD Biosciences: Cat #555824, RRID: AB_398614, 2 μl) and anti-human CD38 (PerCP; BioLegend: Cat #303520, RRID: AB_893313, 2 μl) antibodies for flow cytometry analysis as described above.

K562 cells = assay: Viability (Annexin V/7AAD) and CFC assays of vector control versus PC knockout K562 cells; type: cell-based, human; details: 72 hours; 600 nm imatinib or 100 nm omacetaxine
Description: (a) Western blot of PC and loading control (tubulin) from vector control or PC knockout K562 cells. (b) Proliferation of K562 cells from A. Shown is average and SEM from 3 independent experiments. (c) Fractional labelling from ^13C6 glucose into indicated metabolites of PC knockout cells are shown (n=3) after 24 hours. Plots were generated using Autoplotter, average and SD are plotted. Statistical analyses were conducted on the m+5 fraction. An ordinary one-way ANOVA was used with Dunnett's test used to correct for multiple comparisons. (d) Cells viability was measured using Annexin V and 7AAD. Cells were either left untreated (UT) or exposed for 72 hours to 600 nm imatinib or 100 nm omacetaxine (OMA). Shown is average and SEM from 4 independent experiments. An ordinary one-way ANOVA was used with Dunnett's test used to correct for multiple comparisons. (e) Colony Forming Cell (CFC) potential of control and […] cells. Cells were either left untreated (UT) or exposed for 72 hours to 600 nm imatinib. Shown is average and SEM from 4 independent experiments. An ordinary one-way ANOVA was used with Dunnett's test used to correct for multiple comparisons. […]

Cc1cn(-c2cc(NC(=O)c3ccc(C)c(Nc4nccc(-c5cccnc5)n4)c3)cc(C(F)(F)F)c2)cn1 [nilotinib]
total metabolite levels (CML CD34+ cells [1]): reduction | 13C-glucose incorporation into TCA cycle metabolites (CML CD34+ cells [2]): reduction | phospho-AMPK in CD34+ CML cells (phospho-AMPK): increase

N#C/C(=C\c1cn(-c2ccccc2)c2ccccc12)C(=O)O [UK-5099]
labelled fractions in alpha-ketoglutarate (AKG) and AKG-derived glutamate (K562 CML cell line): reducing levels of all labelled fractions in these metabolites in a concentration-dependent manner | glucose contribution to fraction of labelling (K562 CML cell line; data not shown): concentration-dependent reduction

O=C(Nc1ccc(OC(F)(F)Cl)cc1)c1cnc(N2CC[C@@H](O)C2)c(-c2ccn[nH]2)c1 [ABL-001]
engraftment of human CML cells in bone marrow (CML CD34+ cells [3]; ABL-001 10 mg/kg/day (5 mg/kg BID), 12 weeks engraftment): variable increase in engraftment | CD34+ cells in bone marrow (CML CD34+ cells [3]; ABL-001 10 mg/kg/day): not affected

COC(=O)C[C@](O)(CCCC(C)(C)O)C(=O)O[C@@H]1C(OC)=C[C@]23CCCN2CCc2cc4c(cc2[C@H]13)OCO4 [omacetaxine mepesuccinate]
sensitisation of K562 to the drug by PC ablation, viability and CFC assays (K562 cells): not observed
